Assay results: US20250367332A1, “PSMA-TARGETED RADIOACTIVE METAL COMPLEX CONTAINING NITROAROMATIC HETEROCYCLIC GROUP AND PREPARATION METHOD” (BEIJING NORMAL UNIVERSITY, priority 2023, published 2025)

Test system: 22RV1-FOLH1-oe cells
Test: In vitro cell uptake of 68Ga complexes over time in 22RV1-FOLH1-oe cells
Type: cell-based
Conditions: for uptake-time profile (course of cellular uptake with prolonged incubation time): 37 KBq, 37° C., 15-120 minutes
Protocol: (§1) […] A 500 μL aliquot was added to each well of six 12-well plates. Each group of wells was treated with 37 KBq of [^68Ga]Ga-AAZTA-NI-PSMA, [^68Ga]Ga-AAZTA-NI-PSMA-11, and [^68Ga]Ga-HBED-CC-PSMA-11 solution. Incubation proceeded at 37° C. At 15, 30, 60, 90, and 120 minutes, uptake was terminated with PBS. Cells were lysed with 1 M NaOH, and lysates were absorbed onto filter paper for radioactivity measurement in plastic tubes. Blocking was performed at 60 minutes using excess unlabeled PSMA-11. After incubation, uptake was terminated with PBS, cells were lysed with 1 M NaOH, and lysates were absorbed onto filter paper for radioactivity measurement in plastic tubes.
(§2) 22RV1-FOLH1-oe cells were suspended at a density of 1.5×10^5 cells/mL. A 500 μL aliquot was added to each well of six 12-well plates. Each group of wells was treated with 37 KBq of [^68Ga]Ga-AAZTA-NI-PSMA, [^68Ga]Ga-DOTA-NI-PSMA, [^68Ga]Ga-HBED-CC-NI-PSMA, and [^68Ga]Ga-HBED-CC-PSMA-11 solution. Incubation proceeded at 37° C. At 15, 30, 60, 90, and 120 minutes, uptake was terminated with PBS. Cells were lysed with 1 M NaOH, and lysates were absorbed onto filter paper for radioactivity measurement in plastic tubes. Blocking was performed at 60 minutes using excess unlabeled PSMA-11. After incubation, uptake was terminated with PBS, cells were lysed with 1 M NaOH, and lysates were absorbed onto filter paper for radioactivity measurement in plastic tubes.
as §1, with “three” for “six”, “[^68Ga]Ga-AAZTA-NI-PSMA-093” for “[^68Ga]Ga-AAZTA-NI-PSMA, [^68Ga]Ga-AAZTA-NI-PSMA-11,”
as §2, with “2×10^5” for “1.5×10^5”, “the following solutions: [^68Ga]Ga-HBED-CC-PSMA-11, [^68Ga]Ga-NI-HBED-CC-PSMA-11, [^68Ga]Ga-HBED-CC-PSMA-093,” for “[^68Ga]Ga-AAZTA-NI-PSMA, [^68Ga]Ga-DOTA-NI-PSMA, [^68Ga]Ga-HBED-CC-NI-PSMA,”, “[^68Ga]Ga-NI-HBED-CC-PSMA-093.” for “[^68Ga]Ga-HBED-CC-PSMA-11 solution.”

O=C([O-])CN(CCN(CC(=O)[O-])Cc1cc(CCC(=O)NCCCCCC(=O)NCCCC[C@H](NC(=O)N[C@@H](CCC(=O)O)C(=O)O)C(=O)O)ccc1[O-])Cc1cc(CCC(=O)O)ccc1[O-].[68Ga+3].[OH3+] [[^68Ga]Ga-HBED-CC-PSMA-11]
uptake-time profile (course of cellular uptake with prolonged incubation time) (Application Embodiment 1, 1×10^5 cells/mL, n=3 (FIG. 12)): initially increased and subsequently decreased
cellular uptake compared with the other radioactive metal complexes (Application Embodiment 1, versus [^68Ga]Ga-AAZTA-NI-PSMA and [^68Ga]Ga-AAZTA-NI-PSMA-11, all time points): significantly higher
uptake-time profile (course of cellular uptake with prolonged incubation time) (Application Embodiment 2, 1.5×10^5 cells/mL, n=3 (FIG. 14)): initially increased and subsequently decreased
uptake-time profile (course of cellular uptake with prolonged incubation time) (Application Embodiment 3, 1×10^5 cells/mL, n=3 (FIG. 16)): initially increased and subsequently decreased
uptake-time profile (course of cellular uptake with prolonged incubation time) (Application Embodiment 4, 2×10^5 cells/mL, n=3 (FIG. 18)): gradually increased
